Experimental data taken from patent publication US20240116985A1, “STAPLED PEPTIDES AND METHODS THEREOF” (priority 2020, published 2024).
Converted amounts (≈) assume the structure as drawn. Read-outs that look alike come from different tables or passages of the source.

Columns and labels:
[1] = target: T1, full-length beta-Catenin (Uniprot ID P35222) (Homo sapiens, UniProt P35222); test: Fluorescence polarization IC50 (beta-catenin / 5FAM-TCF4 10-53 competition); type: binding
T1 construct: 10 nM full-length beta-Catenin (Uniprot ID P35222)
T1 sequence (P35222 1-781): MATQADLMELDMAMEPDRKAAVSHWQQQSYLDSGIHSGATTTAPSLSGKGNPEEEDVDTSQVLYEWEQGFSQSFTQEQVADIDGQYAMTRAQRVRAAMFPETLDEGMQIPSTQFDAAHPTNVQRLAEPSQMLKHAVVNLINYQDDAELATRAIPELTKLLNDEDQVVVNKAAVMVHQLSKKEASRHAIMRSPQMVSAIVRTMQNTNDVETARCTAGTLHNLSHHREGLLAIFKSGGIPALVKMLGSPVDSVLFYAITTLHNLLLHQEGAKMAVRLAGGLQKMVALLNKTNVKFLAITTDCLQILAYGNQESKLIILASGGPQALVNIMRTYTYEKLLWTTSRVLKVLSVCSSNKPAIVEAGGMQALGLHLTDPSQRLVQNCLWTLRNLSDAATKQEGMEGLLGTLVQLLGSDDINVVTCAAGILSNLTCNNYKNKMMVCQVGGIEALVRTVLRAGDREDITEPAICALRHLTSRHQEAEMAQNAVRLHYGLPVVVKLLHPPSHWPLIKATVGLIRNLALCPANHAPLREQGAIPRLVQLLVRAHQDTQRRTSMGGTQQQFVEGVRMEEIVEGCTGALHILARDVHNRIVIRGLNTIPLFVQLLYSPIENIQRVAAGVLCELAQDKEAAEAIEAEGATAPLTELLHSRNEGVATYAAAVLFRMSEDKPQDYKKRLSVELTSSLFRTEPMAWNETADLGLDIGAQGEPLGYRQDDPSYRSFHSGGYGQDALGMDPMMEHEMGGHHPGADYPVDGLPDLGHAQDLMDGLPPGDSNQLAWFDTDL

[2] = Solubility in PBS; type: physicochemical
Outline: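 Steps: ultracentrifuge the peptide PBS solution, inject the supernatant on HPLC, inject a 50 μM peptide DMSO solution as reference, then calculate solubility as area ratio (PBS/DMSO) × 50 uM.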

[3] = CHI Log D procedure; type: physicochemical; conditions: for CHI Log D: pH 7.4; for chromatographic logD / logD: pH 7.4, CHI Log D
[4] = Table E2-1, read-out: beta-Catenin FP IC50
[5] = fluorescence polarization, beta-catenin, read-out: FP EC50
[6] = fluorescence polarization, read-out: beta-Catenin FP IC50

| IC50 [1, 4] | IC50 [1, 5] | Solubility [2] | CHI Log D [3] | IC50 [1, 6] | chromatographic logD [3] | logD [3] | Solubility ([2]; Solubility (uM)) | SMILES |
| --- | --- | --- | --- | --- | --- | --- | --- | --- |
| 1340 nM | 1340 nM | 50 µM (≈ 94.8 µg/mL) | 2.143 | – | – | – | – | CC(=O)N1CCC[C@]12CC=CCCCC1(CCCC=CCCCCCC[C@@](C)(C(=O)N[C@@H](Cc3ccccc3)C(=O)N[C@@H](Cc3csc4ccccc34)C(=O)N[C@@H](CCC(N)=O)C(N)=O)NC(=O)[C@H](CCC(N)=O)NC(=O)[C@H](Cc3cccc(C(F)(F)F)c3)NC(=O)[C@H](C)NC(=O)[C@H](C)NC(=O)[C@H](CC(=O)O)NC(=O)[C@H](CC(=O)O)NC1=O)NC(=O)[C@H](C)NC(=O)[C@H](CC(=O)O)NC2=O (stereo partly drawn) [I-378, Ac-PL3-Asp-Ala-B5-Asp-Asp-Ala-Ala-3F3MeF-Gln-S8-Phe-BztA-Gln-NH2] |
| – | 1340 nM | 50 µM (≈ 94.8 µg/mL) | 2.143 | – | – | – | – | CC(=O)N1CCC[C@]12CC=CCCCC1(CCCC=CCCCCCC[C@@](C)(C(=O)N[C@@H](Cc3ccccc3)C(=O)N[C@@H](Cc3csc4ccccc34)C(=O)N[C@@H](CCC(N)=O)C(N)=O)NC(=O)[C@H](CCC(N)=O)NC(=O)[C@H](Cc3cccc(C(F)(F)F)c3)NC(=O)[C@H](C)NC(=O)[C@H](C)NC(=O)[C@H](CC(=O)O)NC(=O)[C@H](CC(=O)O)NC1=O)NC(=O)[C@H](C)NC(=O)[C@H](CC(=O)O)NC2=O (stereo partly drawn) [I-379, Ac-PL3-Asp-Ala-B5-Asp-Asp-Ala-Ala-3F3MeF-Gln-S8-Phe-BztA-Gln-NH2] |
| 552 nM | 552 nM | 49 µM (≈ 92.9 µg/mL) | 2.19 | – | – | – | – | CC(=O)N1CCC[C@]12CC=CCCCC1(CCCC=CCCCCCC[C@@](C)(C(=O)N[C@@H](Cc3ccccc3)C(=O)N[C@@H](Cc3csc4ccccc34)C(=O)N[C@@H](CCC(N)=O)C(N)=O)NC(=O)[C@H](CCC(N)=O)NC(=O)[C@H](Cc3cccc(C(F)(F)F)c3)NC(=O)[C@H](C)NC(=O)[C@H](C)NC(=O)[C@H](CC(=O)O)NC(=O)[C@H](CC(=O)O)NC1=O)NC(=O)[C@H](C)NC(=O)[C@H](CC(=O)O)NC2=O (stereo partly drawn) [I-380, Ac-PL3-Asp-Ala-B5-Asp-Asp-Ala-Ala-3F3MeF-Gln-S8-Phe-BztA-Gln-NH2] |
| 3650 nM | 3650 nM | 10 µM (≈ 18.2 µg/mL) | 2.636 | – | – | – | – | CC(=O)N1CCC[C@]12CC=CCCCC1(CCCC=CCCCCCC[C@@](C)(C(=O)N[C@@H](Cc3cccc(F)c3)C(=O)N[C@@H](Cc3csc4ccccc34)C(=O)N[C@@H](CCC(N)=O)C(N)=O)NC(=O)[C@H](C(C)C)NC(=O)[C@H](Cc3ccccc3)NC(=O)[C@H](C)NC(=O)[C@H](C)NC(=O)[C@H](CC(N)=O)NC(=O)[C@H](CC(=O)O)NC1=O)NC(=O)[C@H](C)NC(=O)[C@H](CC(=O)O)NC2=O (stereo partly drawn) [I-381, Ac-PL3-Asp-Ala-B5-Asp-Asn-Ala-Ala-Phe-Val-S8-3FF-BztA-Gln-NH2] |
| 2060 nM | 2060 nM | 10 µM (≈ 18.2 µg/mL) | 2.631 | – | – | – | – | CC(=O)N1CCC[C@]12CC=CCCCC1(CCCC=CCCCCCC[C@@](C)(C(=O)N[C@@H](Cc3cccc(F)c3)C(=O)N[C@@H](Cc3csc4ccccc34)C(=O)N[C@@H](CCC(N)=O)C(N)=O)NC(=O)[C@H](C(C)C)NC(=O)[C@H](Cc3ccccc3)NC(=O)[C@H](C)NC(=O)[C@H](C)NC(=O)[C@H](CC(N)=O)NC(=O)[C@H](CC(=O)O)NC1=O)NC(=O)[C@H](C)NC(=O)[C@H](CC(=O)O)NC2=O (stereo partly drawn) [I-382, Ac-PL3-Asp-Ala-B5-Asp-Asn-Ala-Ala-Phe-Val-S8-3FF-BztA-Gln-NH2] |
| 177 nM | 177 nM | 45 µM (≈ 81.6 µg/mL) | 1.837 | – | – | – | – | CC(=O)N1CCC[C@]12CC=CCCCC1(CCCC=CCCCCCC[C@@](C)(C(=O)N[C@@H](Cc3ccccn3)C(=O)N[C@@H](Cc3csc4ccccc34)C(=O)N[C@@H](CCC(N)=O)C(N)=O)NC(=O)[C@H](C(C)C)NC(=O)[C@H](Cc3ccccc3)NC(=O)[C@H](C)NC(=O)[C@H](C)NC(=O)[C@H](CCC(=O)O)NC(=O)[C@H](CC(=O)O)NC1=O)NC(=O)[C@H](C)NC(=O)[C@H](CC(=O)O)NC2=O (stereo partly drawn) [I-384, Ac-PL3-Asp-Ala-B5-Asp-Glu-Ala-Ala-Phe-Val-S8-2pyrA-BztA-Gln-NH2] |
| – | – | 50 µM (≈ 90.7 µg/mL) | – | 3150 nM | 1.71 | – | – | CC(=O)N1CCC[C@]12CC=CCCCC1(CCCC=CCCCCCC[C@@](C)(C(=O)N[C@@H](Cc3ccncc3)C(=O)N[C@@H](Cc3csc4ccccc34)C(=O)N[C@@H](CCC(N)=O)C(N)=O)NC(=O)[C@H](C(C)C)NC(=O)[C@H](Cc3ccccc3)NC(=O)[C@H](C)NC(=O)[C@H](C)NC(=O)[C@H](CCC(=O)O)NC(=O)[C@H](CC(=O)O)NC1=O)NC(=O)[C@H](C)NC(=O)[C@H](CC(=O)O)NC2=O (stereo partly drawn) [I-385, Ac-PL3-Asp-Ala-B5-Asp-Glu-Ala-Ala-Phe-Val-S8-4pyrA-BztA-Gln-NH2] |
| – | 2620 nM | 48 µM (≈ 87 µg/mL) | 2.136 | 2620 nM | – | – | – | CC(=O)N1CCC[C@]12CC=CCCCC1(CCCC=CCCCCCC[C@@](C)(C(=O)N[C@@H](Cc3ccccc3)C(=O)N[C@@H](Cc3csc4ccccc34)C(=O)N[C@@H](CCC(N)=O)C(N)=O)NC(=O)[C@H](C(C)C)NC(=O)[C@H](Cc3ccccn3)NC(=O)[C@H](C)NC(=O)[C@H](C)NC(=O)[C@H](CCC(=O)O)NC(=O)[C@H](CC(=O)O)NC1=O)NC(=O)[C@H](C)NC(=O)[C@H](CC(=O)O)NC2=O (stereo partly drawn) [I-387, Ac-PL3-Asp-Ala-B5-Asp-Glu-Ala-Ala-2pyrA-Val-S8-Phe-BztA-Gln-NH2] |
| – | 3420 nM | 10 µM (≈ 18.5 µg/mL) | 2.587 | 3420 nM | – | – | – | CC(=O)N1CCC[C@]12CC=CCCCC1(CCCC=CCCCCCC[C@@](C)(C(=O)N[C@@H](Cc3ccccc3)C(=O)N[C@@H](Cc3csc4ccccc34)C(=O)N[C@@H](CCC(N)=O)C(N)=O)NC(=O)[C@H](C(C)C)NC(=O)[C@H](Cc3cccc(F)c3F)NC(=O)[C@H](C)NC(=O)[C@H](C)NC(=O)[C@H](CCC(=O)O)NC(=O)[C@H](CC(=O)O)NC1=O)NC(=O)[C@H](C)NC(=O)[C@H](CC(=O)O)NC2=O (stereo partly drawn) [I-390, Ac-PL3-Asp-Ala-B5-Asp-Glu-Ala-Ala-23FF-Val-S8-Phe-BztA-Gln-NH2] |
| – | 1910 nM | 10 µM (≈ 18.5 µg/mL) | 2.585 | 1910 nM | – | – | – | CC(=O)N1CCC[C@]12CC=CCCCC1(CCCC=CCCCCCC[C@@](C)(C(=O)N[C@@H](Cc3ccccc3)C(=O)N[C@@H](Cc3csc4ccccc34)C(=O)N[C@@H](CCC(N)=O)C(N)=O)NC(=O)[C@H](C(C)C)NC(=O)[C@H](Cc3cccc(F)c3F)NC(=O)[C@H](C)NC(=O)[C@H](C)NC(=O)[C@H](CCC(=O)O)NC(=O)[C@H](CC(=O)O)NC1=O)NC(=O)[C@H](C)NC(=O)[C@H](CC(=O)O)NC2=O (stereo partly drawn) [I-391, Ac-PL3-Asp-Ala-B5-Asp-Glu-Ala-Ala-23FF-Val-S8-Phe-BztA-Gln-NH2] |
| – | – | 10 µM (≈ 18 µg/mL) | – | 5000 nM | – | 2.52 | – | CC(=O)N1CCC[C@]12CC=CCCCC1(CCCC=CCCCCCC[C@@](C)(C(=O)N[C@@H](Cc3ccccc3)C(=O)N[C@@H](Cc3csc4ccccc34)C(=O)N[C@@H](CCC(N)=O)C(N)=O)NC(=O)[C@H](C(C)C)NC(=O)[C@H](CC3CCCC3)NC(=O)[C@H](C)NC(=O)[C@H](C)NC(=O)[C@H](CCC(=O)O)NC(=O)[C@H](CC(=O)O)NC1=O)NC(=O)[C@H](C)NC(=O)[C@H](CC(=O)O)NC2=O (stereo partly drawn) [I-392, Ac-PL3-Asp-Ala-B5-Asp-Glu-Ala-Ala-CypA-Val-S8-Phe-BztA-Gln-NH2] |
| – | – | 10 µM (≈ 18 µg/mL) | – | 1950 nM | – | 2.64 | – | CC(=O)N1CCC[C@]12CC=CCCCC1(CCCC=CCCCCCC[C@@](C)(C(=O)N[C@@H](CC3CCCC3)C(=O)N[C@@H](Cc3csc4ccccc34)C(=O)N[C@@H](CCC(N)=O)C(N)=O)NC(=O)[C@H](C(C)C)NC(=O)[C@H](Cc3ccccc3)NC(=O)[C@H](C)NC(=O)[C@H](C)NC(=O)[C@H](CCC(=O)O)NC(=O)[C@H](CC(=O)O)NC1=O)NC(=O)[C@H](C)NC(=O)[C@H](CC(=O)O)NC2=O (stereo partly drawn) [I-393, Ac-PL3-Asp-Ala-B5-Asp-Glu-Ala-Ala-Phe-Val-S8-CypA-BztA-Gln-NH2] |
| – | – | – | – | 2150 nM | 1.85 | – | 46 µM (≈ 86.6 µg/mL) | CC(=O)N1CCC[C@]12CC=CCCCC1(CCCC=CCOC(=O)N(C)CCC[C@@](C)(C(=O)N[C@@H](Cc3cccc(F)c3)C(=O)N[C@@H](Cc3csc4ccccc34)C(=O)N[C@@H](CCC(N)=O)C(N)=O)NC(=O)[C@H](C(C)C)NC(=O)[C@H](Cc3ccccc3)NC(=O)[C@H](C)NC(=O)[C@H](C)NC(=O)[C@H](Cc3c[nH]cn3)NC(=O)[C@H](CC(=O)O)NC1=O)NC(=O)[C@H](C)NC(=O)[C@H](CC(=O)O)NC2=O (stereo partly drawn) [I-398, Ac-PL3-Asp-Ala-B5-Asp-His-Ala-Ala-Phe-Val-SeN-3FF-BztA-Gln-NH2] |
